# The source made the active and inactive calls. The rule behind the calls is not given here.
# Experiments:
# PC-12 [1] = assay: Prevention of serum deprivation-induced PC12 cell apoptosis at > 100 uM by MTT assay; assay type: functional, cell-based; details: Rattus norvegicus
# PC-12 [2] = assay: Prevention of serum deprivation-induced PC12 cell apoptosis at 100 uM by MTT assay; assay type: functional, Rattus norvegicus
# Adenosine receptor A2a = Adenosine receptor A2a (Rattus norvegicus, UniProt P30543); assay: Binding affinity to adenosine A2A receptor in rat brain striatum; assay type: tissue-based
# PC-12 [3] = assay: Prevention of serum deprivation-induced PC12 cell apoptosis by MTT assay; assay type: functional, cell-based; details: Rattus norvegicus
# Sequence of Adenosine receptor A2a (P30543 whole entry): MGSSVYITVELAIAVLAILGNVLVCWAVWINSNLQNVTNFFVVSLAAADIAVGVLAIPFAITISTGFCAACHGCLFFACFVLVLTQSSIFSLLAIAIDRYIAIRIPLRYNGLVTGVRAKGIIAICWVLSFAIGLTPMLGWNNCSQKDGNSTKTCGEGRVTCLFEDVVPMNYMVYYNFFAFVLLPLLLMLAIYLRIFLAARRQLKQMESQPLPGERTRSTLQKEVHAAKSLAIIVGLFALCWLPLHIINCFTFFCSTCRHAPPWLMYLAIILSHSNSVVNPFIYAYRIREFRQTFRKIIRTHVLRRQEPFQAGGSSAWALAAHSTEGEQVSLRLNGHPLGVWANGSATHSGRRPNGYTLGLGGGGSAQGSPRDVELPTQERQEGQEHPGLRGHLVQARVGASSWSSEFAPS
IC50 (Adenosine receptor A2a),Ki (Adenosine receptor A2a),Compound,Activity (PC-12 [1]),Activity (PC-12 [2]),EC50 (PC-12 [3])
,,OCc1ccc(O[C@@H]2O[C@H](CO)[C@@H](O)[C@H](O)[C@H]2O)cc1,inactive,,
,,Nc1ncnc2c1ncn2[C@@H]1O[C@H](CO)[C@@H](O)[C@H]1O [ADENOSINE],,80%,
,,C[C@H]1O[C@@H](Oc2ccc(COC(=O)CC(O)(CC(=O)OCc3ccc(O[C@@H]4O[C@H](CO)[C@@H](O)[C@H](O)[C@H]4O)cc3)C(=O)Oc3ccc(O[C@H]4O[C@H](CO)[C@@H](O)[C@H](O)[C@H]4O)cc3)cc2)[C@H](O)[C@@H](O)[C@@H]1O (some centres undefined),inactive,,
42.9 µM,24.1 µM,Oc1ccc(CSCc2ccc(O)cc2)cc1,,,7.2 µM
4.66 µM,2.62 µM,OC[C@H]1O[C@@H](n2cnc3c(NCc4ccc(O)cc4)ncnc32)[C@H](O)[C@@H]1O,,,0.037 µM

# From ChEMBL document CHEMBL1142127, “Neuroprotective principles from Gastrodia elata” (J Nat Prod, 2007)
